Assay results from patent US4372948A, “Derivative of saccharide and physiologically active agent containing the same” (Kureha Kagaku Kogyo Kabushiki Kaisha, priority 1980, dated 1983).

Columns and labels:
[1] = in vivo; details: mouse, in vivo, po, mice, 7 days observation, read-out: LD50, acute oral toxicity
[2] = system: level of blood sugar; test: Anti-hyperglycemia activity (reduction of blood sugar level); assay type: in vivo, rat (Wistar, streptozotocin); details: oral, 300 mg/kg
Method: A group of Wistar rats to which at first streptozotocin was interperitoneally administered at a rate of 60 mg/kg and of which the positivity of glycosuria was confirmed after a week of the administration and to which regular insulin was further administered and of which the reduction of levels of glucose in urine and blood was once confirmed, however, of which hyperglycemia and hyperglycosuria were again confirmed after a few days was chosen and used as model animals of glycosuria in the following test. After orally administering each of the present compounds to the model animals at a dose of 300 mg/kg body weight, as a solution or dispersion in distilled water, the blood was collected two times, respectively after 3 and 6 hours of the administration.

[3] = system: blood pressure; test: Anti-hypertension activity (reduction of blood pressure); assay type: in vivo, rat (spontaneous hypertension); details: oral, 300 mg/kg
Method: Rats of spontaneous hypertension were orally administered with each of the present compounds as a solution or dispersion in distilled water at a dose rate of 300 mg/kg body weight. After 3 and 6 hours of the administration, the blood pressure of each rat was determined, and the difference between the above-determined value and the value just before the administeration was used as the index of the activity of reducing the blood pressure of the compound.

[4] = system: Sarcoma-180; test: Anti-tumour activity against Sarcoma-180; assay type: in vivo, mouse (ICR-JCL); details: Mus musculus, Sarcoma-180, po, 600 h, 10 times every other day, tumour weight on 25th day, read-out: Antitumour activity, inhibiting rate (I.R.)
Method: Sarcoma-180 was transplanted into the axillary part of ICR-JCL mice at a rate of 1×10^6 cells/animal, and after 24 hours of transplantation, each of the present compounds as a solution or dispersion in sterilized physiological saline solution was orally administered to each of the transplanted mice 10 times every other day at a dose of 500 mg/kg/time. On 25th day of the transplantation, tumour node(s) were extirpated from all the mice to determine the weight of the tumour nodes.
Antitumour activity (activity of inhibiting the proliferation of the transplanted sarcoma) of each of the present compounds was derived by the following formula and shown in Table 6:
Antitumour activity (Inhibiting rate, I.R.)=(1-T/C)×100(%).
T represents the total weight of tumour nodes of the group of mice transplanted and administered with the present compound, and
C represents the total weight of tumour nodes of the group of mice transplanted, however, not administered with any agents.

[5] = system: total cholesterol; test: Anti-hyperlipemia activity, total cholesterol in blood; assay type: in vivo, rabbit (Japanese white male); details: oral, 300 mg/kg once; for Reduction of cholesterol level after 3 hrs.: negative = raising
Method: (§1) Japanese white male rabbits were fed for 3 months with a solid diet containing 1% of cholesterol taken ad lib, and after confirming the raised lipid content of the serum of the rabbits, they were utilized as model animals suffering from experimental arteriosclerosis. Each of the present compounds was administered orally as a solution or dispersion in distilled water to the experimental animals of each group at a dose rate of 300 mg/kg once, and blood samples were taken at a predetermined time interval from the auricular vein of each animal. The content of cholesterol in the blood specimen was traced as the time passed by, with an enzymatic method, and the content of beta-lipoprotein in the same blood specimen was traced with a colorimetry. Each value in Table 7 is the difference between the level just before administration and the level after 3 or 6 hours of the administration.

[6] = system: beta-lipoprotein; test: Anti-hyperlipemia activity, beta-lipoprotein in blood; assay type: in vivo, rabbit (Japanese white male); details: oral, 300 mg/kg once
Method: as §1

[7] = system: carrageenin edema; test: Anti-Carrageenin edema activity; assay type: in vivo, rat; details: Rattus norvegicus, po, 1000 mg/kg once, read-out: I.R. against carrageenin edema
Method: After orally administering each of the present compounds forcibly to each group of rats, composed of 10 animals, as a solution or dispersion in distilled water at a dose of 1000 mg/kg once, 0.1 ml of an aqueous dispersion of 1% carrageenin in aqueous physiological saline solution was injected into the foot pad of the right hind leg of the administered animal following Van Arman et al. (1963). Thereafter, the thickness of the foot pad was measured at a time interval to find the rate of inhibiting of the swelling of the foot pad according to the following formula:
(§2) Rate of inhibition (I.R.) (%)=(1-T/C)×100
T means the average volume of the foot pad of the animals administered with one of the present compounds and carrageenin, and
C means that of the animal not administered with the present compound, however, administered with carrageenin.

[8] = system: cotton pellet granuloma; test: Anti-granuloma activity (cotton pellet); assay type: in vivo, rat; details: Rattus norvegicus, po, 192 h, 7 days, read-out: I.R. against cotton pellet edema
Method: Following the method of Winter et al. (1963), each two cotton wool pellets, each weighing 30±1 mg, were implanted into the back of each rats of groups of rats, each group consisting of 6 animals, at the positions of mutually symmetrical concerning the median line of the rat. To these groups of the thus operated rats, the present compounds were respectively administered orally and forcibly as a solution or dispersion in distilled water for 7 continuous days, once a day at a dose of 1000 mg/kg/day. On 8th day of the implantation, the granuloma was extirpated and the dry weight of the granuloma was measured, the rate of inhibiting the proliferation of granuloma being obtained as in (5-1) being shown in Table 8.

[9] = system: exudation; test: Anti-exudation activity (air pouch, croton oil); assay type: in vivo, rat; details: Rattus norvegicus, po, 144 h, 5 days, read-out: I.R. against exudation
Method: Following the method of Baris et al. (1965), air was injected subcutaneously into the back of groups of rats, each group consisting of 6 animals to make an air pouch, and 0.5 ml of sesame oil containing 1% by weight of croton oil was injected into the air pouch. Each of the present compounds was orally administered forcibly to each of the groups of rats as a solution or dispersion in distilled water at a dose rate of 1000 mg/kg/day for continued five days. The amount of liquid exudated into the air pouch was measured on 6th day of the operation. The rate of inhibiting the exudation of the liquid was obtained by the same manner as in (5-2) and the results are shown also in Table 8.

[10] = system: pseudo-escaping reaction to tail pressure; test: Analgetic activity against mechanical stimulation of pressure; assay type: in vivo, mouse (ICR female); details: oral, 1000 mg/kg
[11] = system: acetic acid writhing; test: Analgetic activity against chemical stimulation of acetic acid (writhing); assay type: in vivo, mouse (ICR female); details: Mus musculus, po, 30 min before 0.6% acetic acid, read-out: I.R. of writhing
Source text: as §2
T represents the average number of writhing of the group of mice administered with the present compound and injected with acetic acid, and C represents the average number of writhing of the group of mice only injected with acetic acid (control).

[12] = system: pyrexia (Saccharomyces cerevisiae); test: Anti-pyrexia activity (yeast-induced); assay type: in vivo; details: Rattus norvegicus, oral, read-out: Rate of inhibiting pyrexia (I.R.)
Method: Following the method of Winter et al. (1961), an aqueous dispersion of 20% by weight of Saccharomyces cerevisiae was subcutaneously injected into groups of rats, each group consisting of 6 animals, and after 10-hour fasting, 1000 mg/kg of each of the present compounds was orally administered to the rat as a solution of dispersion in distilled water, and then the rectal temperature of the rat was measured at a predetermined interval of time to find the lowest temperature.
The anti-pyrexia activity of each compound was obtained from the following formula: […]
Anti-pyrexia activity represented by the rate of inhibition (I.R.)
C2 represents the average rectal temperature of negative control (non-treatment), not injected with the yeast and not administered with the present compound,
C1 represents the average temperature of positive control, injected with the yeast and not administered with the compound and T represents the temperature of tested animals, injected with the yeast and administered with the present compound.

SMILES	LD50 at 168 h [1] [mg/kg]	Reduced level of blood sugar after 3 hrs. [2] [mg/dL]	Reduced level of blood sugar after 6 hrs. [2] [mg/dL]	Reduced level of blood pressure after 3 hrs. [3] [mm Hg]	Reduced level of blood pressure after 6 hrs. [3] [mm Hg]	inhibition in vivo at 500 mg/kg [4] [%]	Reduction of cholesterol level after 3 hrs. [5] [mg/dL]	Reduction of cholesterol level after 6 hrs. [5] [mg/dL]	Reduction of beta-lipoprotein level after 3 hrs. [6] [mg/dL]	Reduction of beta-lipoprotein level after 6 hrs. [6] [mg/dL]	inhibition in vivo at 1000 mg/kg [7] [%]	inhibition in vivo at 1000 mg/kg/day [8] [%]	inhibition in vivo at 1000 mg/kg/day [9] [%]	Pseudo-escapting reaction pressure [10] [mmHg]	Pseudo-escapting reaction time [10] [s]	inhibition in vivo at 1000 mg/kg [11] [%]	inhibition in vivo at 1000 mg/kg [12] [%]
O=C(Oc1ccccc1)c1ccc(NC2O[C@H](CO)[C@@H](O[C@H]3O[C@H](CO)[C@@H](O[C@H]4O[C@H](CO)[C@@H](O)[C@H](O)[C@H]4O)[C@H](O)[C@H]3O)[C@H](O)[C@H]2O)cc1 (stereo partly shown) [Compound 10, phenyl p-aminobenzoate-N-maltotrioside]	12400	99	106	18	18	39	-5	33	106	111	6.6	19.6	7.5	86	36	30	41
C[C@@H]1OC(Nc2cccc(C(=O)OCc3ccccc3)c2)[C@@H](O)[C@H](O)[C@@H]1O (stereo partly drawn) [Compound 11, benzyl m-aminobenzoate-N-L-fucoside]	9700	75	88	21	25	40	-1	50	98	109	22.8	4.4	11	74	35	17	29
O=C(OCc1ccccc1)c1cccc(NC2O[C@H](CO)[C@@H](O[C@@H]3O[C@H](CO)[C@H](O)[C@H](O)[C@H]3O)[C@H](O)[C@H]2O)c1 (stereo partly shown) [Compound 12, benzyl m-aminobenzoate-N-lactoside]	11500	52	95	16	18	37	7	48	121	124	18.7	8.4	10.7	90	42	33	17
O=C(OCc1ccccc1)c1ccc(NC2C[C@H](O)[C@H](O)CO2)cc1 (stereo partly drawn) [Compound 13, benzyl p-aminobenzoate-N-D-deoxyriboside]	9200	108	113	20	21	38	4	35	135	144	7	4.2	23.5	82	40	24	39
O=C(OCc1ccccc1)c1ccc(NC2O[C@H](CO)[C@@H](O)[C@H](O)[C@H]2O)cc1 (stereo partly drawn) [Compound 14, benzyl p-aminobenzoate-N-D-glucoside]	11700	65	93	24	24	42	3	38	143	146	5.1	23.3	6.9	92	44	39	56
